“And” between values parts separate entries of the source, which are not always exact repeats. Equal values may be shown once.
Columns and labels:
[1] = tested on: U937 cells; experiment: U937 differentiation, NBT reduction; format: cell-based, human; settings: day 6; sodium stibogluconate 400 μg/ml, GM-CSF 25 ng/ml
Protocol: (§1) Differentiation of AML cell lines was assessed by their ability to produce superoxide as measured by reduction of NBT to formazan and by analysis of expression of CD11b surface marker by flow cytometry. For NBT reduction, each cell suspension was mixed with an equal volume of solution containing 1 mg/ml of NBT (Sigma) and 2.5 µg/ml of TPA for 30 minutes at 37° C. After incubation, cells containing the purple formazan deposits and cells devoid of NBT-reducing activity (white cells) in each sample were determined by counting 200 cells under microscope. Data is expressed as a percentage based on the following ratio: purple cells/purple+white cells. For analysis of cell surface antigens, cells were exposed to phycoerythrin (PE)-conjugated murine anti-human CD11b (DAKO Corp., Carpinteria, Calif.). Analysis of fluorescence was performed on a FACScan flow cytometer (Beckton Dickinson, Mountain View, Calif.).

[2] = tested on: HL-60 cells; experiment: HL-60 differentiation, NBT reduction; format: cell-based, human; settings: day 6; sodium stibogluconate 400 μg/ml, GM-CSF 25 ng/ml
Protocol: as §1

[3] = tested on: NB4 cells; experiment: NB4 cell cycle analysis; format: cell-based, human; settings: 3 days; sodium stibogluconate 250 μg/ml, ATRA 1 μM
Protocol: The cell cycle was analyzed by flow cytometry after 3 days of culture of NB4 cells in the absence or presence of sodium stibogluconate (250 µg/ml) or ATRA (1 μM). Briefly, the cells were fixed in cold ethanol and incubated for 30 minutes at 4° C. in the dark with a solution of 50 […], 1 mg/ml RNase and 0.1% NP-40. Analysis was performed immediately after staining using the CELLFIT program (Becton Dickinson, Mountain View, Calif.).

[4] = biological target: T1, PRL-3 (Homo sapiens, UniProt O75365); experiment: In vitro PTPase assay, recombinant PRL-3, DiFMUP substrate; format: biochemical; settings: comparable conditions
T1 construct: GST (N); made in house; host or cells: DHSa (DH5a) bacteria
Protocol: (§2) In vitro PTPase assays were used to determine the effects of compounds on recombinant PTPases, following established procedures using a synthetic phosphotyrosine peptide or DiFMUP as the substrate (Pathak et al., J. Imumol. 167, 3391 (2001)). Briefly, individual PTPases (0.1 µg/reaction) in 50 μL of PTPase buffer (50 mM Tris, pH 7.4) were incubated at 22° C. for 10 minutes or as indicated in the absence or presence of inhibitory compounds. Substrates (0.2 mM phosphotyrosine peptide) were then added and allowed to react at 22° C. for 18 hrs. PTPase activity of individual reactions was measured by adding 100 µL of malachite green solution (UBI) and then quantifying the amounts of free phosphate cleaved by the PTPase from the peptide substrate by spectrometry (OD660 nm). PTPase assays using DiFMUP as a substrate were conducted following a previously described procedure (Matter, et al., Biochem. Biophys. Res. Comm. 283, 1061 (2001)). Relative PTPase activities were calculated based on the formula: (PTPase activity in the presence of an inhibitory compound/PTPase activity in the absence of the compound)× 100%. To assess the reversibility of PTPase inhibition, GST fusion proteins of the PTPases bound on glutathione beads (Pharmacia) were pre-incubated with cold Tris buffer (50 mM Tris, pH 7.0) or Tris buffer containing the inhibitor at 4° C. for 30 minutes. The beads were then washed three times in cold Tris buffer or not washed prior to subjecting to in vitro PTPase assays.

[5] = tested on: NB4 cells; experiment: NB4 differentiation, NBT reduction; format: cell-based, human; settings: comparable conditions
Protocol: as §1

[6] = biological target: T2, PTP1B (Homo sapiens, UniProt P18031); experiment: In vitro PTPase assay, GST/PTP1B; format: biochemical; settings: 1-1,000 μg/ml
T2 construct: GST; purchased Upstate Biotechnology Inc. (Lake Placid, N.Y.)
Protocol: (§3) In vitro PTPase activities were measured using the commercial protein tyrosine phosphatase assay kit (Upstate Biotechnology, Inc. (“UBI”)) following established procedure known to one of skill in the art. This assay measures the in vitro dephosphorylation of a synthetic phosphotyrosine peptide of the sequence Arg-Arg-Leu-Ile-Glu-Asp-Ala-Gle-Tyr-Ala-Ala-Arg-Gly, wherein the tyrosine is phosphorylated (SEQ ID NO: 3). Briefly, 0.01 µg of GST/PTPase fusion proteins was incubated in 50 μL of Tris buffer (10 mM Tris, pH 7.4) containing different concentrations of inhibitors or chemicals (0-1,000 μg/ml) at 22° C. for 10 minutes, followed by addition of 0.2 mM of the phosphotyrosine peptide and incubation at 22° C. for 18 hours. 100 μL of Malachite Green solution was added and incubated for 5 minutes, and the absorbance at 660 nm was measured after 5 minutes.
(§4) In vitro PTPase assays were used to determine the effects of levamisole (Sigma), pentamidine (American Pharmaceutical Partners, Inc.), and ketoconazole (Sigma) on recombinant PTPases, following established procedures (Pathak et al., J. Imumol. 167, 3391 (2001); Pathak et al., Leukemia 16, 2285 (2002), Yi et al., J. Immunol. 169, 5978 (2002)) using a synthetic phosphotyrosine peptide or DiFMUP as the substrate as detailed above in section I.A.2.

[7] = tested on: Jak2/Stat5 tyrosine phosphorylation; experiment: IL-3-induced Jak2/Stat5 tyrosine phosphorylation in Baf3 cells; format: cell-based, murine; settings: potassium antimonyl tartrate
Protocol: For induction of cellular protein phosphorylation by sodium stibogluconate or pervanadate, Baf3 cells were incubated in 0.1% FCS-RPMI 1640 medium at 37° C. for 16 hours. The cells were then washed twice in RPMI 1640 medium and incubated with sodium stibogluconate or pervanandate (0.1 mM) for various times prior to termination by lysing cells in cold lysis buffer (50 mM Tris, pH 7.4; 150 mM NaCl; 0.2 mM Na3VO4; 20 mm NaF; 1% Nonidet P-40; 2 mM PMSF; 20 µg/ml of Aprotinin and 1 mM of sodium molybdic acid). To determine the effect of sodium stibogluconate or potassium antimonyl tartrate on IL-3-induced Jak/Stat phosphorylation, Baf3 cells were deprived of the growth factor for 16 hours in 0.1% FCS RPMI 1640 medium and then incubated with or without sodium stibogluconate or potassium antimonyl tartrate for 10 minutes. IL-3 was next added to the cell suspension and incubated for various times. The Cells were then harvested and lysed in cold lysis buffer at 4° C. for 45 minutes. Total cell lysates (TCL) were separated in SDS-PAGE gels, blotted onto nitrocellulose membrane (Schleicher & Schuell), probed with specific antibodies and detected using an enhanced chemiluminescence kit (ECL, Amersham, Arlington Heights, Ill.).

[8] = tested on: Baf3 cells; experiment: Baf3 cell proliferation assay; format: cell-based, murine
Protocol: The murine hematopoietic cell line Baf3 was maintained in RPMI 1640 medium supplemented with 10% fetal calf serum (FCS) and murine IL-3 (20 units/ml) as described previously in Damen et al., J. Biol. Chem. 270, 23402 (1995). Human myeloid cell line TF-1 was maintained in RPMI 1640 supplemented with 10% FCS and 40 ng/ml of recombinant human GM-CSF as described previously in Thomassen et al., Clin. Immunol. 95, 85 (2000). For cell proliferation assays, cells were washed in 10% FCS medium twice, resuspended in 10% FCS medium, incubated at 37° C. for 16 hours, and then cultured at 37° C. in 10% FCS medium containing various amounts of cytokines, sodium stibogluconate, or potassium antimonyl tartrate for 3-6 days as indicated. The cell numbers in proliferation assays were determined by an MTT assay or by microscopic cell counting as indicated.

[9] = biological target: T3, SHP-1 (Mus musculus, UniProt P29351); experiment: In vitro PTPase assay, recombinant GST/SHP-1; format: biochemical
T3 construct: made in house
Protocol: as §3, §2, §4

[10] = tested on: GSTm8; experiment: In vitro PTPase assay, GSTm8; format: biochemical; settings: 3-4 μg/ml or 10-100 μg/ml
Source text: as §4

[11] = biological target: T4, MKP1 (Homo sapiens, UniProt P28562); experiment: In vitro PTPase assay, GST/MKP1; format: biochemical
T4 construct: GST (N); made in house; host or cells: DH5a bacteria
T4 sequence (P28562 1-367): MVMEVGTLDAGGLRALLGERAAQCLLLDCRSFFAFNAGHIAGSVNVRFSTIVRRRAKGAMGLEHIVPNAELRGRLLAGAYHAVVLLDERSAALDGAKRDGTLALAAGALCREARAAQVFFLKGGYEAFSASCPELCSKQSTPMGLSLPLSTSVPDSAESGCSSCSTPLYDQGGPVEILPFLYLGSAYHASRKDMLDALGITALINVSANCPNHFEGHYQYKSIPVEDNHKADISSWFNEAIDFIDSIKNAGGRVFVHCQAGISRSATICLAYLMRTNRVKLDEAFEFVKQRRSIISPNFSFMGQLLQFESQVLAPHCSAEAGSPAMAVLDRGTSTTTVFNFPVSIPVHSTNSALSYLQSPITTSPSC
Protocol: as §3, §4

[12] = biological target: T3, SHP-1; experiment: Reversibility of SHP-1 inhibition (washing of bead-bound GST/SHP-1); format: biochemical; settings: pre-incubated 4° C. 30 minutes, washed 3 times
Source text: The beads were then either subjected to in vitro PTPase assays or washed 3 times in Tris buffer then subjected to in vitro PTPase assays.

T3 sequence (P29351 whole entry): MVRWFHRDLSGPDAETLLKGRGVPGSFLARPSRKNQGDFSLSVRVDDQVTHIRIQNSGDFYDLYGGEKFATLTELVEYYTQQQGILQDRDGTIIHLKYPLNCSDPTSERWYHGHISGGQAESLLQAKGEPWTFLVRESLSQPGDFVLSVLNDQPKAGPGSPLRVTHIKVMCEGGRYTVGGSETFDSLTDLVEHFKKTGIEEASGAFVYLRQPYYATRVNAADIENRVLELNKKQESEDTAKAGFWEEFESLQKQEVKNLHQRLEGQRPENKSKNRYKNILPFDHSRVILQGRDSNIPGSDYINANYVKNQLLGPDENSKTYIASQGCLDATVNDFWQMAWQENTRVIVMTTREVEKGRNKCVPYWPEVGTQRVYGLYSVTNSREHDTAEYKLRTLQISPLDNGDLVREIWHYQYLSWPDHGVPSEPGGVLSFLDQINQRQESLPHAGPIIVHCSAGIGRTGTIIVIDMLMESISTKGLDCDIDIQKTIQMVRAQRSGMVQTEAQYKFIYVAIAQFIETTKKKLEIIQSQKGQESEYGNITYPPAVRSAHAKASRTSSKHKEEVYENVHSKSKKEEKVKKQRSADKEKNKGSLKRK
T1 sequence (O75365 whole entry): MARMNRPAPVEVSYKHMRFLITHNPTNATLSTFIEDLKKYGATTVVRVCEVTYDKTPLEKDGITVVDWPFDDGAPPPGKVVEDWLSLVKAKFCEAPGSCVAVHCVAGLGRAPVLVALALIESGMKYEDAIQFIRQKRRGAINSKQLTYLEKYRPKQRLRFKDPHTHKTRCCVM
T2 sequence (P18031 whole entry, species assumed): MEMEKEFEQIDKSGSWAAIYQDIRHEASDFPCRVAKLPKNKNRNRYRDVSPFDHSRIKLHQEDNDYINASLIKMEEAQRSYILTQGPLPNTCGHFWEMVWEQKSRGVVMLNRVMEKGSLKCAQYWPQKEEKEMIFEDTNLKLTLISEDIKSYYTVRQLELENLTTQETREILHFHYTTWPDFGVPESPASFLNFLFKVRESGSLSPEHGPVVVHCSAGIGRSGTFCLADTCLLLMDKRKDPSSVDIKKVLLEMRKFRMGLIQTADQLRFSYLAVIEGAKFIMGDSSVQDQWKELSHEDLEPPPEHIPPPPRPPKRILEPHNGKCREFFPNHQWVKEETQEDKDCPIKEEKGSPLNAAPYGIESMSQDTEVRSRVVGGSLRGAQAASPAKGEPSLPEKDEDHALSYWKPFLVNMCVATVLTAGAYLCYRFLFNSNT

**Q.** With CC1=C(/C=C/C(C)=C/C=C/C(C)=C/C(=O)O)C(C)(C)CCC1 [ATRA, All-trans-retinoic acid] as the molecule, how does the “NBT-positive (differentiated) U937 cells” value [1] read?
**A.** 72% and 73%

**Q.** And the “NBT-positive (differentiated) HL-60 cells” value [2]?
**A.** 90%

**Q.** And the “NB4 cell cycle effect” value [3]?
**A.** arrested at G1 phase

**Q.** How did the “inhibition of PRL-3 with DiFMUP substrate” value [4] turn out when [Na+].[Na+].[Na+].[O]=[V]([O-])([O-])[O-] [sodium orthovanadate] was run?
**A.** less effective than sodium stibogluconate

**Q.** GM-CSF: recombinant human GM-CSF was tested. Which “NBT-positive (differentiated) U937 cells” value [1] did it give?
**A.** 8-10%

**Q.** What about the “effect of GM-CSF on NB4 differentiation” value [5] of the same molecule?
**A.** no detectable effect

**Q.** And the “NBT-positive (differentiated) HL-60 cells” value [2]?
**A.** 8-10%

**Q.** Which results are given for O.O.O.O=C([O-])[C@H]([O-])[C@@H]([O-])C(=O)[O-].O=C([O-])[C@H]([O-])[C@@H]([O-])C(=O)[O-].[K+].[K+].[Sb+3].[Sb+3] [potassium antimonyl tartrate]?
**A.** inhibition of PTP1B [6]: no detectable inhibition; IL-3-induced Stat5 phosphorylation [7]: failed to enhance IL-3-induced Stat5 phosphorylation; toxicity against Baf3 cells [8]: marked toxicity against Baf3 cells; IL-3-induced proliferation of Baf3 cells ([8]; IL-3 10 units/ml, three days): failed to enhance; inhibition of SHP-1 ([9]; 1-1,000 μg/ml): no detectable inhibition

**Q.** How did the “inhibitory activity against GSTm8” value [10] turn out when c1ccc([C@H]2CN3CCSC3=N2)cc1 [levamisole] was run?
**A.** no obvious inhibitory activity

**Q.** What about the “inhibitory activity against SHP-1” value ([9]; 3-4 μg/ml or 10-100 μg/ml) of the same molecule?
**A.** no obvious inhibitory activity

**Q.** What about the “inhibition of MKP1” value [11] of the same molecule?
**A.** substantial inhibition

**Q.** What does the source list for Cc1ccc(C(=O)Nc2ccc(S(=O)(=O)O)c3cc(S(=O)(=O)O)cc(S(=O)(=O)O)c23)cc1NC(=O)c1cccc(NC(=O)Nc2cccc(C(=O)Nc3cc(C(=O)Nc4ccc(S(=O)(=O)O)c5cc(S(=O)(=O)O)cc(S(=O)(=O)O)c45)ccc3C)c2)c1 [Suramin]?
**A.** inhibition of PRL-3 with DiFMUP substrate [4]: less effective than sodium stibogluconate; inhibition of GST/SHP-1 after washing [12]: almost completely removed by the washing process; inhibition of SHP-1 compared with sodium stibogluconate ([9]; under comparable conditions): less effective
